These results are taken from patent US20240066155A1, “DUAL MODE RADIOTRACER AND -THERAPEUTICS” (priority 2021, published 2024).

The target in one series is T1, PSMA (Homo sapiens, UniProt Q04609).
T1 construct: endogenous in cells; host or cells: LNCaP cells
In words: Competitive binding studies on LNCaP cells vs ([125I]BA)KuE (affinity, IC50). To be noted: 1 h, 4° C., natLu complexes. How it is done: (§1) Competitive binding studies were determined on LNCaP cells (1.5×10^5 cells in 1 mL/well) after incubation at 4° C. for 1 h, using (((S)-1-carboxy-5-(4-([^125I]iodo)benzamido)pentyl)carbamoyl)-L-glutamic acid ([^125I]BA)KuE; 0.2 nM/well) as reference radioligand (n=3). Internalization studies of the radiolabeled ligands (1.0 nM/well) were performed on LNCaP cells (1.25×10^5 cells in 1 mL/well) at 37° C. for 1 h and accompanied by ([^125I]BA)KuE (0.2 nM/well), as reference. Data were corrected for non-specific binding and normalized to the specific internalization observed for the reference (n=3). A detailed description of the experimental procedures was previously published (Wurzer A, et al. J Nucl Med. 2020; 61: 735-742).

The subject of the next series is LNCaP cells. In words: PSMA-mediated internalization into LNCaP cells. It counts as cell-based. The conditions noted are these: 1 h, 37° C., percentage of reference ligand ([125I]BA)KuE, n=3. As for the experimental part: as §1
A short description of series [1]: Lipophilicity, n-octanol/PBS (pH 7.4) distribution. It counts as physicochemical. To be noted: n-octanol/PBS pH 7.4, 177Lu-labeled, n=6. As for the experimental part: Approximately 1 MBq of the ^177Lu-labeled PSMA ligand was dissolved in 1 mL of a 1:1 mixture (v/v) of phosphate-buffered saline (PBS, pH 7.4) and n-octanol (n=6). After vigorous mixing of the suspension for 3 min, the vial was centrifuged at 15000×g for 3 min and 100 μL aliquots of both layers were measured in a γ-counter. Finally, the ratio of the radioactivity detected in the n-octanol sample and the PBS buffer was calculated and expressed as distribution ratio log D7.4.

In a further series the target is T2, human serum albumin (Homo sapiens, UniProt P02768).
T2 construct: purchased Biowest, Nuaillé, France
T2 sequence (P02768 25-609): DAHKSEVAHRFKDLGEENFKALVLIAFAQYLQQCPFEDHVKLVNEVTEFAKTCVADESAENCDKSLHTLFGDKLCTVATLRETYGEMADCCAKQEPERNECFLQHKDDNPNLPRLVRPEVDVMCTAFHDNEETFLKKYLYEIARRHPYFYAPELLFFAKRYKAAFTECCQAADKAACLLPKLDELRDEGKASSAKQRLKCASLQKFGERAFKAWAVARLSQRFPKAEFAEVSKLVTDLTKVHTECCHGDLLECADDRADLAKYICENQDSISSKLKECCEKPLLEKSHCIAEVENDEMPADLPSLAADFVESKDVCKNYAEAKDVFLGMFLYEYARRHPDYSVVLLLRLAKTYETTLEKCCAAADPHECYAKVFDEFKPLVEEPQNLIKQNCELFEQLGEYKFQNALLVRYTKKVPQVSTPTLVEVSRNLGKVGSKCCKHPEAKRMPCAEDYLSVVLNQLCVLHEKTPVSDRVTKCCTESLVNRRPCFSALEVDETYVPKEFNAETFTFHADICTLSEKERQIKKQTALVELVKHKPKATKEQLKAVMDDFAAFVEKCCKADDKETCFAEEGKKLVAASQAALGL
The series is described as follows: Binding to human serum albumin by albumin mediated size exclusion chromatography (AMSEC). It counts as in vitro ADME. To be noted: size exclusion chromatography with HSA in the mobile phase, 177Lu-labeled. How it is done: Binding of ^177Lu-labeled ligands to HSA was assessed by albumin mediated size exclusion chromatography (AMSEC). A gel filtration size exclusion column (Superdex 75 Increase 10/300 GL, GE Healthcare, Uppsala, Sweden) was used with HSA buffer at physiological concentration (700 μM, Biowest, Nuaillé, France) as mobile phase (constant flow rate of 0.8 mL/min at room temperature). For calibration purposes, a commercially available set of proteins (GE Healthcare, Buckinghamshire, UK) was used. Under these chromatographic conditions, the retention time of a radioligand (1.0 MBq, 10-20 GBq/μmol) depends on the extent of HSA/ligand interactions and thus, by means of the calibration with the aforementioned set of proteins, can be translated into an AMW (expressed in kDa) as a parameter allowing to quantify the extent of HSA binding. The detection window ranges between 2.3 kDa ([^18F]Fluoride; no HSA interaction) and 70.2 kDa (experimental molecular weight of HSA; maximum HSA interaction).
For orientation: In gel filtration, larger molecules generally elute earlier.

Series [2] relates to LNCaP tumor-bearing male CB-17 SCID mice. The series is described as follows: Ex vivo biodistribution in LNCaP tumor-bearing CB-17 SCID mice. The conditions noted are these: 24 h p.i.; for Tumor uptake / Activity accumulation tumor: LNCaP tumor; for Tumor-to-organ ratio adrenals / Tumor-to-organ ratio blood / Tumor-to-organ ratio bone / Tumor-to-organ ratio heart / Tumor-to-organ ratio intestine / Tumor-to-organ ratio kidney / Tumor-to-organ ratio liver / Tumor-to-organ ratio lung / Tumor-to-organ ratio muscle / Tumor-to-organ ratio pancreas / Tumor-to-organ ratio parotid gl. / Tumor-to-organ ratio spleen / Tumor-to-organ ratio stomach / Tumor-to-organ ratio submand. gl.: n=5, mean of ratios per mouse; for Activity accumulation adrenals / Activity accumulation blood / Activity accumulation bone / Activity accumulation heart / Activity accumulation intestine / Activity accumulation liver / Activity accumulation lung / Activity accumulation muscle / Activity accumulation pancreas / Activity accumulation parotid gl. / Activity accumulation spleen / Activity accumulation stomach / Activity accumulation submand. gl. / Activity accumulation tumor / Activity accumulation kidney: n=5, mean, complete dataset. As for the experimental part: All animal experiments were conducted in accordance with general animal welfare regulations in Germany (German animal protection act, as amended on 18 May 2018, Art. 141 G v. 29 Mar. 2017 I 626, approval no. 55.2-1-54-2532-71-13) and the institutional guidelines for the care and use of animals. LNCaP tumor xenografts were established in 6-8 weeks old male CB-17 SCID mice as described previously (Wurzer A, et al. J Nucl Med. 2020; 61: 735-742). Biodistribution Studies. The ^177Ludabeled PSMA inhibitors (2-5 MBq; 0.1 nmol) were injected under isoflurane anesthesia into the tail vein of LNCaP tumor-bearing male CB-17 SCID mice that were sacrificed 24 h post injection (p.i.) (n=4-5). Selected organs were removed, weighed, and measured in a counter. All rhPSMA ligands were evaluated in mice during the same time period (Q1/2020), whereas ^177Ludabeled PSMA-617 and PSMA I&T (Wirtz M, et al. EJNMMI Res. 2018; 8: 84) were assessed previously using the identical cell line, mouse model and experimental procedure.

The conditions of series [3]: literature, Wängler et al. Bioconjug Chem 2010; cited from earlier work.

Values joined by “and” are separate entries in the source; they are usually repeats but may differ in a detail not shown here. Identical values can stand only once.

T1 sequence (Q04609 whole entry): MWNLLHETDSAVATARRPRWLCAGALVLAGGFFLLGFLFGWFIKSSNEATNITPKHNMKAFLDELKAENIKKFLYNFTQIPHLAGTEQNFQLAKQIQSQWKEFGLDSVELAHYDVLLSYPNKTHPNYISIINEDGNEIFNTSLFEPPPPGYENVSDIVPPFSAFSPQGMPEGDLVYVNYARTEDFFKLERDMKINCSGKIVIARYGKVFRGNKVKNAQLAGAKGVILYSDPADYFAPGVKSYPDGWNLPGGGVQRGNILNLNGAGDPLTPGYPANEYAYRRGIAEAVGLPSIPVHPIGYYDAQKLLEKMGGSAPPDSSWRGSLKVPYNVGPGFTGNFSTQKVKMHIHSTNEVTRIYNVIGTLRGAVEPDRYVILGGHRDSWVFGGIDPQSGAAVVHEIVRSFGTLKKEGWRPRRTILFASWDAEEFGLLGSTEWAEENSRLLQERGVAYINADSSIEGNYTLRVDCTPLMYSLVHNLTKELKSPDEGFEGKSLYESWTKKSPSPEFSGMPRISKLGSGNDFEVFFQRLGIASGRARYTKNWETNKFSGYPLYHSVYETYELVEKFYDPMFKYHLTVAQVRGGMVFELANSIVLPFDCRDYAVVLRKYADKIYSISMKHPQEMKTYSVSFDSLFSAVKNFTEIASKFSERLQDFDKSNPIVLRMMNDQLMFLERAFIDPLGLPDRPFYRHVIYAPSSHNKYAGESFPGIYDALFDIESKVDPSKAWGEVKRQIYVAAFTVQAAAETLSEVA

In general, IC50 refers to the concentration that inhibits the measured activity by half. At PSMA (n=3), `CC(C)(C)[Si]([19F])(c1ccc(C(=O)NC[C@@H](NC(=O)CN2CCN(CC(=O)O)CCN(CC(=O)O)CCN(CC(=O)O)CC2)C(=O)N[C@H](CCCCNC(=O)CCC(=O)NCCC[C@@H](NC(=O)CC[C@H](NC(=O)N[C@@H](CCC(=O)O)C(=O)O)C(=O)O)C(=O)O)C(=O)O)cc1)C(C)(C)C` [[^177Lu, ^19F]rhPSMA-10.1, metal not drawn] had an IC50 of 2.76 ± 0.51 nM. In the series on LNCaP cells, the “Internalization [% IBA-KuE]” value came to 177.4 ± 14.6 % IBA-KuE. Also, in series [1], the logD7.4 was −3.8 and −3.78 ± 0.06. Also, the “MWapp [kDa] (apparent molecular weight, AMW; HSA binding)” value (“MWapp [kDa]” for short) on human serum albumin is given as 25.1 kDa. For the same molecule, in series [2], the “Kidney uptake as percentage of that of [177Lu, 19F]rhPSMA-7.3” value was determined as 20%; the “Tumor-to-blood ratio, times higher compared to [177Lu, 19F]rhPSMA-7.3” value was 2 times; the “Tumor-to-blood ratio, times higher compared to [177Lu]PSMA-617” value was determined as 7 times; the “Tumor uptake” value is 9.8±0.3 % ID/g. In addition, in series [2], the Tumor-to-organ ratio adrenals is given as 137.57, the Tumor-to-organ ratio blood is listed as 9117, the Tumor-to-organ ratio bone was found to be 389.88 and the Tumor-to-organ ratio heart amounted to 641.37. In series [2], the Tumor-to-organ ratio intestine amounted to 250.87, the Tumor-to-organ ratio kidney worked out at 5.5, the Tumor-to-organ ratio liver was determined as 72.52 and the Tumor-to-organ ratio lung amounted to 404.28. Moreover, in series [2], the Tumor-to-organ ratio muscle turned out to be 2431.90, the Tumor-to-organ ratio pancreas was determined as 797.72, the “Tumor-to-organ ratio parotid gl.” value is listed as 206.18 and the Tumor-to-organ ratio spleen is given as 63.66. Also, in series [2], the Tumor-to-organ ratio stomach was found to be 351.52, the “Tumor-to-organ ratio submand. gl.” value was found to be 344.45, the Activity accumulation adrenals amounted to 0.0983 % ID/g and the Activity accumulation blood is 0.0019 % ID/g. In series [2], this molecule yielded an Activity accumulation bone of 0.0298 % ID/g, an Activity accumulation heart of 0.0192 % ID/g, an Activity accumulation intestine of 0.0642 % ID/g and an Activity accumulation liver of 0.1631 % ID/g. In series [2], the Activity accumulation lung was found to be 0.0346 % ID/g, the Activity accumulation muscle was 0.0053 % ID/g, the Activity accumulation pancreas is 0.0155 % ID/g and the “Activity accumulation parotid gl.” value is recorded as 0.0551 % ID/g. For the same molecule, in series [2], the Activity accumulation spleen was 0.1828 % ID/g, the Activity accumulation stomach worked out at 0.0388 % ID/g, the “Activity accumulation submand. gl.” value came to 0.0338 % ID/g and the Activity accumulation tumor is 11.5563 % ID/g. For the same molecule, in series [2] (listed as [^177Lu]rhPSMA-10.1), the Tumor-to-organ ratio blood came to 9117.20, the Tumor-to-organ ratio kidney is given as 5.52 and the Activity accumulation kidney is 2.4219 % ID/g.
The molecule `CC(C)(C)[Si](F)(c1ccc(C(=O)NC[C@H](NC(=O)CN2CCN(CC(=O)[O-])CCN(CC(=O)[O-])CCN(CC(=O)[O-])CC2)C(=O)N[C@H](CCCCNC(=O)CCC(=O)NCCC[C@@H](NC(=O)CC[C@H](NC(=O)N[C@@H](CCC(=O)O)C(=O)O)C(=O)O)C(=O)O)C(=O)O)cc1)C(C)(C)C.[Lu+3]` [[^177Lu, ^19F]rhPSMA-10.2] yielded an IC50 at PSMA (n=3) of 3.61 ± 0.59 nM. The “Internalization [% IBA-KuE]” value with LNCaP cells worked out at 205.6 ± 8.3 % IBA-KuE. Moreover, the logD7.4 in series [1] is −3.8 and −3.83 ± 0.10. For the same molecule, the “MWapp [kDa]” value on human serum albumin stood at 21.8 kDa. In series [2], the “Tumor uptake” value was 10.5±3.3 % ID/g.
At PSMA (n=3), `O=C([O-])CN1CCN(CC(=O)[O-])CCN(C(CCC(=O)N[C@H](Cc2ccc(O)c(I)c2)C(=O)N[C@H](Cc2ccccc2)C(=O)N[C@H](CCCCNC(=O)CCCCCCC(=O)NCCCC[C@H](NC(=O)N[C@@H](CCC(=O)O)C(=O)O)C(=O)O)C(=O)O)C(=O)O)CCN(CC(=O)[O-])CC1.[Lu+3]` (stereo partly drawn) [[^177Lu]PSMA I&T] registered a concentration for half-maximal inhibition (IC50) of 4.17 ± 0.78 nM. The molecule also came in with an IC50 on PSMA (n=3, listed as [^natLu]PSMA I&T) of 4.2 ± 0.8 nM. In addition, in the series on LNCaP cells, the “Internalization [% IBA-KuE]” value was 145±14 % IBA-KuE and 145.4 ± 13.8 % IBA-KuE. The molecule further showed a logD7.4 in series [1] of −4.1 ± 0.1. Further, the “MWapp [kDa]” value on human serum albumin came out at 5.3 kDa. Besides, in series [2], the “Tumor uptake” value was 4.1±1.1 % ID/g, the Tumor-to-organ ratio adrenals came to 5.62, the Tumor-to-organ ratio blood was determined as 1288 and the Tumor-to-organ ratio bone is on record as 358.26. Further, in series [2], the Tumor-to-organ ratio heart is 366.06, the Tumor-to-organ ratio intestine worked out at 191.31, the Tumor-to-organ ratio kidney is recorded as 0.6 and the Tumor-to-organ ratio liver is 155.09. In series [2], the Tumor-to-organ ratio lung came out at 65.08, the Tumor-to-organ ratio muscle was 1964.92, the Tumor-to-organ ratio pancreas amounted to 336.33 and the “Tumor-to-organ ratio parotid gl.” value amounted to 63.21. For the same molecule, in series [2], the Tumor-to-organ ratio spleen is reported as 9.06, the Tumor-to-organ ratio stomach amounted to 236.69, the “Tumor-to-organ ratio submand. gl.” value was determined as 136.76 and the Activity accumulation adrenals is given as 1.3590 % ID/g. In series [2], the Activity accumulation blood is given as 0.0061 % ID/g, the Activity accumulation bone amounted to 0.0209 % ID/g, the Activity accumulation heart stood at 0.0208 % ID/g and the Activity accumulation intestine is given as 0.0507 % ID/g. In series [2], this molecule returned an Activity accumulation kidney of 15.9±12.0 % ID/g, an Activity accumulation liver of 0.0553 % ID/g, an Activity accumulation lung of 0.1138 % ID/g and an Activity accumulation muscle of 0.0051 % ID/g. For the same molecule, in series [2], the Activity accumulation pancreas amounted to 0.0295 % ID/g, the “Activity accumulation parotid gl.” value is recorded as 0.1346 % ID/g, the Activity accumulation spleen is listed as 1.2047 % ID/g and the Activity accumulation stomach worked out at 0.0326 % ID/g. Moreover, in series [2], the “Activity accumulation submand. gl.” value worked out at 0.0581 % ID/g and the Activity accumulation tumor is on record as 7.5780 % ID/g. Also, in series [2] (listed as [^177Lu] PSMA-I&T), the Tumor-to-organ ratio blood was determined as 1288.54 and the Tumor-to-organ ratio kidney stood at 0.61. The molecule also came in with an Activity accumulation kidney in series [2] (listed as [^177Lu]PSMA-I&T) of 15.8527 % ID/g.
For “SIFA-Asn(AcNH-β-Glc)-PEG-Tyr^3-octreotate”, in series [3], the “log P(ow)” value is given as 0.96.
For SIFA-Asn(AcNH-β-Glc)-Tyr^3-octreotate, the “log P(ow)” value in series [3] is reported as 1.23.
